In ChEMBL document CHEMBL1201862, “PubChem BioAssay data set” (2004):
Active and inactive are the calls of the source.

Key:
[1] = target: T1, Apoptotic protease-activating factor 1 (Homo sapiens, UniProt O14727); type: functional
T1 sequence (O14727 whole entry): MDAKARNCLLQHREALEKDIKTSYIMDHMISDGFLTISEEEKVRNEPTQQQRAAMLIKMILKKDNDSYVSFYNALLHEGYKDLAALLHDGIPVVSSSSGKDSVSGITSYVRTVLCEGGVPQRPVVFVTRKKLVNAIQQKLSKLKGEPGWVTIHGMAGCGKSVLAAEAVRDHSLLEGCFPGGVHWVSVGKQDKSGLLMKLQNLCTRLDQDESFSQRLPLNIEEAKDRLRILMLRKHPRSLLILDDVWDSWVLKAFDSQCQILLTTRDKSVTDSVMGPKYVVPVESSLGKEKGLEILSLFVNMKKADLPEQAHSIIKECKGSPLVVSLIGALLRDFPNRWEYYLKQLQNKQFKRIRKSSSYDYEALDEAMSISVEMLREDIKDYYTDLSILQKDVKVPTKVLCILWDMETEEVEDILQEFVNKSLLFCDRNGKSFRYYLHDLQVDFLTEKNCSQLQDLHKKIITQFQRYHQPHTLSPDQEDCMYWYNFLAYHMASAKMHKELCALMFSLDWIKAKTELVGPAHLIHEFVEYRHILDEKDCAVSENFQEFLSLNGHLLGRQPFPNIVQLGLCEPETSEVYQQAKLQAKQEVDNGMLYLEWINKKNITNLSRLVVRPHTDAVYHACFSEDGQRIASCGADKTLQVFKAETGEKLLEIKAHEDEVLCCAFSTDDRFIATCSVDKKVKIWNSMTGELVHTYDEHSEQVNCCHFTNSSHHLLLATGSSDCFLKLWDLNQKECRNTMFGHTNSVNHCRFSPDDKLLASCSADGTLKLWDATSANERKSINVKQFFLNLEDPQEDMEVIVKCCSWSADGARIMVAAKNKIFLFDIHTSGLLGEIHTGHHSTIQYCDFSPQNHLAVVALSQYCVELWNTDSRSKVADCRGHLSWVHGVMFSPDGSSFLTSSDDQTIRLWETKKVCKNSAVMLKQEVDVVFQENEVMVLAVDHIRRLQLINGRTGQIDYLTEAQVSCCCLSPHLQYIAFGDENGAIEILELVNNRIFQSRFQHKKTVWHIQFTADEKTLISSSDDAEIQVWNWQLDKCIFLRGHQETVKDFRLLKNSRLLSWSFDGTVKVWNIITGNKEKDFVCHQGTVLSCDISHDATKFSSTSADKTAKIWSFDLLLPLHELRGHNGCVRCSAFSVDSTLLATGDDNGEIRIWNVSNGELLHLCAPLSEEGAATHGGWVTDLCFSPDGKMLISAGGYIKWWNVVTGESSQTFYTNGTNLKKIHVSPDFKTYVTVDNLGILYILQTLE

Caspase-3 = target: T2, Caspase-3 (Homo sapiens, UniProt P42574); type: functional;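 note: Dose-response selectivity test against caspase-3 for candidate inhibitors of sentrin-specific proteases (SENPs)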
T2 sequence (P42574 whole entry): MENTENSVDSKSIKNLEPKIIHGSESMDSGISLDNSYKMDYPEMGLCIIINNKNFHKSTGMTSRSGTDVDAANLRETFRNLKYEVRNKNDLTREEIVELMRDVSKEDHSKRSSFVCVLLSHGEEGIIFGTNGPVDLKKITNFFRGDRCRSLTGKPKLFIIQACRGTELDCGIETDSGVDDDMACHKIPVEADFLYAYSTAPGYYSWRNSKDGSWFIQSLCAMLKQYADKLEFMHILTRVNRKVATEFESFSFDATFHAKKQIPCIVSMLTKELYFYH

[2] = target: T3, Sentrin-specific protease 7 (Homo sapiens, UniProt Q9BQF6); type: functional;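 note: Luminescence-based dose-response confirmation of ultra-high-throughput screening hits, measuring inhibition of SENP7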
T3 sequence (Q9BQF6 whole entry): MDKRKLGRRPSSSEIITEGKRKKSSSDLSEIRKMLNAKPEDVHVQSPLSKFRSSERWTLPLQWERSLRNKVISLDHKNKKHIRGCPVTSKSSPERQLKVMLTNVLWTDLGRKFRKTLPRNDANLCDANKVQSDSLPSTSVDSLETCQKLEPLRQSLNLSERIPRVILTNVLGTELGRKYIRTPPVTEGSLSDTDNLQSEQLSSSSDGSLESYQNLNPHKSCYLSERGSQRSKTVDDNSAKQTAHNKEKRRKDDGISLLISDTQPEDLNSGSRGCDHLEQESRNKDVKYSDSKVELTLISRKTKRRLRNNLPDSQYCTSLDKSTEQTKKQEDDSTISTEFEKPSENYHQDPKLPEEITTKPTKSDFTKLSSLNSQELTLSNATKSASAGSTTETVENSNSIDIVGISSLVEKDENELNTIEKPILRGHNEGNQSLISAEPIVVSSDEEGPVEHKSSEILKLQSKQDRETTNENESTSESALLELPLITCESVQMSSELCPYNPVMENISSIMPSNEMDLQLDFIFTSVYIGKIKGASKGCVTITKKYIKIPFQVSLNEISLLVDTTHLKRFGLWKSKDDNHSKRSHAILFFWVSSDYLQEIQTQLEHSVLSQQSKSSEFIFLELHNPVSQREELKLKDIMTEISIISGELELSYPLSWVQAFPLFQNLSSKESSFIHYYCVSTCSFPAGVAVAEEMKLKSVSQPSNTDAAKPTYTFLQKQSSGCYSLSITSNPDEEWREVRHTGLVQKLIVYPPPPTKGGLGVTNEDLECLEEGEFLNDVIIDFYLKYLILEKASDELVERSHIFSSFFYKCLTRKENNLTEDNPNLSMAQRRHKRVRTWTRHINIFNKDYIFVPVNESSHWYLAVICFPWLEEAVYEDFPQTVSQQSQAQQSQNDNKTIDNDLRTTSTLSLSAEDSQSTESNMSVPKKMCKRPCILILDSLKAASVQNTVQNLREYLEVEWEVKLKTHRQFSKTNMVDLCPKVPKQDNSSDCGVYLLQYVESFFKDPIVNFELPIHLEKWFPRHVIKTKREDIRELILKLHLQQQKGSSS

[3] = target: T4, Sentrin-specific protease 6 (Homo sapiens, UniProt Q9GZR1); type: functional;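 note: Luminescence-based dose-response confirmatory assay of SENP6 inhibition, following up an ultra-high-throughput screen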
T4 sequence (Q9GZR1 whole entry): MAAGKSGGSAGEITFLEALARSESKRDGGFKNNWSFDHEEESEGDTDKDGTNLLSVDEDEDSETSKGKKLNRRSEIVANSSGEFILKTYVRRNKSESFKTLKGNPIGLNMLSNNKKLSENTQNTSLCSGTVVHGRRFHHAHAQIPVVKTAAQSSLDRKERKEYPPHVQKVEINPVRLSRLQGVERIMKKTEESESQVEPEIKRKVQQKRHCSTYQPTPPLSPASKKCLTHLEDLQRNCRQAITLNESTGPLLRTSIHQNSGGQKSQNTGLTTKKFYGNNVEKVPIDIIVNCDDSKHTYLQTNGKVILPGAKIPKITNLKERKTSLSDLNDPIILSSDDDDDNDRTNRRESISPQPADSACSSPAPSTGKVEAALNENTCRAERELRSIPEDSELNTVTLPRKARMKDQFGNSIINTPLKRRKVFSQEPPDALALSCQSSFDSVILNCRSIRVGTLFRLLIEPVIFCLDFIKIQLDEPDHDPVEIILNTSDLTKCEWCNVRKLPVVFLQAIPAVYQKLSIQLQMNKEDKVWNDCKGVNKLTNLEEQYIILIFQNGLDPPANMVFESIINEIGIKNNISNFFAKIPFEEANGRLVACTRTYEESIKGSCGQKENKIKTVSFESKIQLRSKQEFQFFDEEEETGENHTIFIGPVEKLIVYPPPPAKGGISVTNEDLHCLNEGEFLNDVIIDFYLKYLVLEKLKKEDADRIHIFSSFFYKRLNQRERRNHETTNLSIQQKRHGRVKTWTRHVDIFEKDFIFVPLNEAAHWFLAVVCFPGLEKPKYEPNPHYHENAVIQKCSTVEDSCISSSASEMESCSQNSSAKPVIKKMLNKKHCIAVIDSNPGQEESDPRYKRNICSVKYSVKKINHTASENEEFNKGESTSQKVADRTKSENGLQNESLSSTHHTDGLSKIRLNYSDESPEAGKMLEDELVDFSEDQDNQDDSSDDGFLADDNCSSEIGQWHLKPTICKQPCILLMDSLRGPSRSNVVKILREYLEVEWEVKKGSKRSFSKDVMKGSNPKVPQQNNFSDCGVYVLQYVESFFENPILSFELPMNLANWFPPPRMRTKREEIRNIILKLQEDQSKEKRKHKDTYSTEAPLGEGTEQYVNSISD

[4] = target: T5, Sentrin-specific protease 8 (Homo sapiens, UniProt Q96LD8); type: functional;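 note: luminescence read-out of SENP8 inhibition, dose-response confirmation following an ultra-high-throughput screen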
T5 sequence (Q96LD8 whole entry): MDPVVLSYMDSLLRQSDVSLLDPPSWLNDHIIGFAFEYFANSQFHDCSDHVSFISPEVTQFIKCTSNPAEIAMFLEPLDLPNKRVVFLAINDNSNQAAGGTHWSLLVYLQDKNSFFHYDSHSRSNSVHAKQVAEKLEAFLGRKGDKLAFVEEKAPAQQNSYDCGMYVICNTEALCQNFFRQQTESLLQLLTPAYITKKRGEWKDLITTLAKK

CHO = experiment: cytotoxicity in TLR9-MyD88 CHO cells, dose response, cytotoxicity control for TLR9-MyD88 binding inhibitor project, cell-based, luminescence (AID 588339); type: functional, hamster; conditions: Cricetulus griseus;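 note: CHO cells stably coexpressing TLR9 and MyD88 fusions from primary screen; compound exposure lasted 48 hours before viability readout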
Beta Lactamase = Beta Lactamase (Pseudomonas aeruginosa, UniProt Q932Y6); experiment: beta-lactamase reporter inhibitor potency, dose response, artefact control for TLR9-MyD88 binding inhibitor project, BLA reporter cells, FRET fluorescence (AID 588341); type: cell-based;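 note: cell based assay in CHO-K1 cells stably expressing beta-lactamase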
[5] = target: Luciferin 4-monooxygenase (Photinus pyralis, UniProt P08659); experiment: firefly luciferase enzyme inhibitors, dose response, biochemical, luminescence (AID 1891)
[6] = Luminescence Cell-Based Dose Confirmation HTS to Identify Inhibitors of Platelet Dense Granule Release. [Related pubchem assays: 1663 (Primary HTS), 1678 (Summary of Project)]; type: functional
[7] = target: Endoplasmic reticulum aminopeptidase 1 (Homo sapiens, UniProt Q9NZ08); experiment: ERAP1 aminopeptidase inhibitors, dose response, biochemical, cherry-pick, set 2, plate reader (AID 743314)
Endoplasmic reticulum aminopeptidase 1, sequence (Q9NZ08 whole entry): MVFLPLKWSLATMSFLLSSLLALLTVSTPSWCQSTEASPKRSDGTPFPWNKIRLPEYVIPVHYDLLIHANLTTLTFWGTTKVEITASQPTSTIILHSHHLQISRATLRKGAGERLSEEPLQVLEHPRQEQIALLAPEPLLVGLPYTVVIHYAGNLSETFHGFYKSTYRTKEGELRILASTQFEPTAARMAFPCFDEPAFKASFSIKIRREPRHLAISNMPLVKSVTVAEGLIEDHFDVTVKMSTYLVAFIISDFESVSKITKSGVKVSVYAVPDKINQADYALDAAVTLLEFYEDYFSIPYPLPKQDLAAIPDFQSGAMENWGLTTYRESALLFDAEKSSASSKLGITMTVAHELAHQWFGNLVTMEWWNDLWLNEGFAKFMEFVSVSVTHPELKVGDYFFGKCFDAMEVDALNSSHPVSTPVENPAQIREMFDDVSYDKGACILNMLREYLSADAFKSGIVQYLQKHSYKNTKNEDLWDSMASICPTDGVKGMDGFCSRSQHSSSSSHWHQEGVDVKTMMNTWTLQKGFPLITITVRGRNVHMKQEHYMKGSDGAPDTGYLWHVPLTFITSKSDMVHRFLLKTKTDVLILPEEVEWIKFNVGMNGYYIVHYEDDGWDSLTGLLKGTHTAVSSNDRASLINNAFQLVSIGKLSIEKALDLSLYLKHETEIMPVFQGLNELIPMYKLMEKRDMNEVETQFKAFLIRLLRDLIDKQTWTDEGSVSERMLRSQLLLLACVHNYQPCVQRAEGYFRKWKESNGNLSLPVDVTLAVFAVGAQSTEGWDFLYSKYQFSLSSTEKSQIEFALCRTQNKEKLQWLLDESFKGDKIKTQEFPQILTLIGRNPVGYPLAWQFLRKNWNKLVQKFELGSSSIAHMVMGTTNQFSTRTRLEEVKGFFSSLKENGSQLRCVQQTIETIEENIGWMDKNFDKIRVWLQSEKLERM

Beta Lactamase, sequence (Q932Y6 whole entry): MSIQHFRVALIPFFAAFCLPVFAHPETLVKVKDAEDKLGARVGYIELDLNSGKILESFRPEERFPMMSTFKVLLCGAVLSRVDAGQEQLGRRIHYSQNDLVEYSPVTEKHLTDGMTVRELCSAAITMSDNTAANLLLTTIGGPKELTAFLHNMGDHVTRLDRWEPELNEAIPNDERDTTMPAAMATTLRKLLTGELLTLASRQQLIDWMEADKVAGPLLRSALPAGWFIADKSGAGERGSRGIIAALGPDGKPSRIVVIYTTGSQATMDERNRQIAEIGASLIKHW
Luciferin 4-monooxygenase, sequence (P08659 whole entry): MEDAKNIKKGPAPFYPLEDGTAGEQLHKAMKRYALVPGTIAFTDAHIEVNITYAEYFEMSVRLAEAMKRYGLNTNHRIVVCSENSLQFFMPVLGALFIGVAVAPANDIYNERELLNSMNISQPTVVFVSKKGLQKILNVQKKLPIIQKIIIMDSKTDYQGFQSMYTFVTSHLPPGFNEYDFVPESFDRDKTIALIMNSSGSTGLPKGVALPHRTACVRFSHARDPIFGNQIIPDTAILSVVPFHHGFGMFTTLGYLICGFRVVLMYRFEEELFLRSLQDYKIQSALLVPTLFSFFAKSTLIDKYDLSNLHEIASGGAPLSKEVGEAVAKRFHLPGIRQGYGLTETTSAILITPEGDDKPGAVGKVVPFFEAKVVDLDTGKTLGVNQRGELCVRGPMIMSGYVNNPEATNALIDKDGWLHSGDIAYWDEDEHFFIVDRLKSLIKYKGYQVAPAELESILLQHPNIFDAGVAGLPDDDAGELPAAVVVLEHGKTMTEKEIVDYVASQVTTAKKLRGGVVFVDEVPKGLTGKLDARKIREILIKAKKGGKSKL

Row | IC50 (Caspase-3) | IC50 [2] | IC50 [3] | Compound | IC50 [4] | IC50 (CHO) | IC50 (Beta Lactamase) | other results
1 | – | – | – | CCN(CC(=O)Nc1c(F)cccc1F)C(=O)Cc1ccsc1 | – | – | – | IC50 [1]: > 100 µM (inactive)
2 | 28.2 µM (active) | 6.55 µM (active) | 33.2 µM (active) | O=C1CC(/C=C/c2ccccc2)=Nc2ccccc2N1 | 48.1 µM (active) | – | – | –
3 | – | – | – | CC(=O)Oc1cccc(N2C(=O)c3cccc4c([N+](=O)[O-])ccc(c34)C2=O)c1 | – | 5.26 µM (active) | 4.5 µM (active) | –
4 | 40.7 µM (active) | 4.75 µM (active) | 4.89 µM (active) | COc1ccc(-c2cn(CCC(=O)O)c(C)n2)cc1 | 4.56 µM (active) | – | – | –
5 | – | – | – | COc1ccc(-c2cc3ccc(O)cc3oc2=O)cc1OC | – | > 49.8 µM (inactive) | 5.23 µM (active) | EC50 [5]: 1.23 µM (active); EC50 [6]: 0.335 µM (active); AC50 [7]: 3.21 µM (active)
